These are literature values, as cited in patent US10881615B2, “Pharmaceutical composition comprising dabigatran etexilate, and preparation method, solid preparation and use thereof” (Chia Tai Tianqing Pharmaceutical Group Co., Ltd., priority 2014, dated 2021).

For this data set the following is noted: medium at pH of >4.0.

Molecules are shown by their SMILES.

As to `CCCCCCOC(=O)NC(=N)c1ccc(NCc2nc3cc(C(=O)N(CCC(=O)OCC)c4ccccn4)ccc3n2C)cc1` [dabigatran etexilate, 3-[(2-{[4-(hexyloxycarbonylamino-imino-methyl)-phenylamino]-methyl}-1-methyl-1H-benzimidazol-5-yl-carbonyl)-pyridin-2-yl-amino]-ethyl propionate], the Solubility result is “almost insoluble”.
